Data: PubChem BioAssay AID1794821

Target: Sodium/hydrogen exchanger 9B2 (Homo sapiens) (UniProt Q86UD5)
Experiment: SLC9B2 inhibition via intracellular pH change, dose response, cell-based, pHluorin biosensor fluorescence, HEK-293, SLC9B2 overexpression (AID 1794821)
Settings: HEK-293 SLC9B2 OE

Sequence of Sodium/hydrogen exchanger 9B2 (Homo sapiens) (Q86UD5 whole entry, looked up): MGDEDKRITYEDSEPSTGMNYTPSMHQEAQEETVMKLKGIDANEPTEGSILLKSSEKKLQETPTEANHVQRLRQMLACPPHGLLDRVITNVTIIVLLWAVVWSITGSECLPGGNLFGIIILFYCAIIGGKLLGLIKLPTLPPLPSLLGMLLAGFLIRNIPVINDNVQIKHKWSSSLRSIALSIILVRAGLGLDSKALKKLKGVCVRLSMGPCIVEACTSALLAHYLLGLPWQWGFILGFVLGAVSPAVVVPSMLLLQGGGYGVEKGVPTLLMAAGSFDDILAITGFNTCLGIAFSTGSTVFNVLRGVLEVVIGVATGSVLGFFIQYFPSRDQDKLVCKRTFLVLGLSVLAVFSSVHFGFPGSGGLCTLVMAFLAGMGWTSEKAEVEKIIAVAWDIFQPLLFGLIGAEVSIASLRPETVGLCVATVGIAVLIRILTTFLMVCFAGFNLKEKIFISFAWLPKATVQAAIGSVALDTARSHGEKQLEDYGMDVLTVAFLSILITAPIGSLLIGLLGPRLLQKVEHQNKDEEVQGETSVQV

- IC50: 90 µM
SMILES: O=C(CCc1ccc(O)cc1)c1c(O)cc(O)cc1O
